“Also recorded” adds a separate entry of the source. Read-outs that look alike come from different tables or passages of the source.
How the values were obtained:
Assay type in all cases: cell-based
Renilla_ERa = assay: Renilla signal in ERα counterscreen (Renilla_ERa); conditions: ERα transient transfection, 10 μM
ERα = target: T1, ERα (Homo sapiens, UniProt P03372); assay: Counterscreening, Firefly signal with ERα transient transfection (Firefly_ERa); conditions: ERα transient transfection, 10 μM
T1 construct: expressed in transfected cells
T1 sequence (P03372 1-595): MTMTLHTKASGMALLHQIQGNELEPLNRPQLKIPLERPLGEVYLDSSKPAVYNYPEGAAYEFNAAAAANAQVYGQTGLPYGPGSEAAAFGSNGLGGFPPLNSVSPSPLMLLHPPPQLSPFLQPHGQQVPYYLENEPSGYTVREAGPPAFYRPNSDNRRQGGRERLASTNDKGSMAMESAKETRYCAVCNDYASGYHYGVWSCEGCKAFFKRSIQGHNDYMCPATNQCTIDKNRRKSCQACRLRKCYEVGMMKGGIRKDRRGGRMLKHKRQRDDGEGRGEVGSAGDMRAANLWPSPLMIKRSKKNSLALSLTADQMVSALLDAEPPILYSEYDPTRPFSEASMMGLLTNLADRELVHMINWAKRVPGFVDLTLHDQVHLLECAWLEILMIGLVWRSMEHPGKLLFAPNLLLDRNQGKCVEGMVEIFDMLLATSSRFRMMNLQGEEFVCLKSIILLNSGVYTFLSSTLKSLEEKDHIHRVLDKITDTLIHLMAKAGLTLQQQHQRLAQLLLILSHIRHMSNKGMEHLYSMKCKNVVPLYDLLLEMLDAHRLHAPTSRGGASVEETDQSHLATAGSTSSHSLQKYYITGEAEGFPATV
Method: The methodology for screening candidate compounds as NR2F6 agonists was as follows: For primary screening, hit criteria was ACT %>DMSO control+5*SD (DSO control) at 10 μM, or any compound with S/B>2. For rescreening, hit criteria was ACT %>DMSO control+3*SD (DSO control) in each replicate at 10 μM. For counterscreening, hit criteria was mean ACT<DMSO control+3*SD (DMSO control) with ERα transient transfection in duplicate at 10 μM.

HEK293 pGL4 = assay: Firefly_pGL signal, cmpd/DMSO (pGL4 control cells); conditions: Homo sapiens, HEK293, Table 14, read-out: Firefly pGL4, cmpd/DMSO (mean)
Renilla = Renilla signal in NR2F6 agonist screening, cmpd/DMSO; conditions: for fold induction at 2 µM / fold induction at 10 µM / fold induction at 40 µM: Renilla
NR2F6 = target: T2, NR2F6 (Homo sapiens, UniProt P10588); assay: NR2F6 agonist screening, Firefly signal cmpd/DMSO; conditions: for Firefly F4, cmpd/DMSO (mean): Table 14; for activity (in words): screening result
T2 construct: expressed in transfected cells; also transient transfection
T2 sequence (P10588 1-404): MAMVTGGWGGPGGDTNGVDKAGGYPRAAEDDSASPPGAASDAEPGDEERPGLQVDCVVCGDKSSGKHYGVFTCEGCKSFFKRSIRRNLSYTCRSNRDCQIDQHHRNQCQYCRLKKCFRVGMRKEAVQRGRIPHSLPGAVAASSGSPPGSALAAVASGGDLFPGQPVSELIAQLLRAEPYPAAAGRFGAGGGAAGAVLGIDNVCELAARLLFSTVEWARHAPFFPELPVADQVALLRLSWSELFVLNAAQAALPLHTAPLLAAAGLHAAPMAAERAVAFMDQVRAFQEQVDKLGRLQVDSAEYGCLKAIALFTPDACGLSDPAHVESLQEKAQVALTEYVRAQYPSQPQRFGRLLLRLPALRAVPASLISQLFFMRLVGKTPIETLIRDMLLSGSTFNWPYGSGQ

[1] = repeat 1, read-out: Renilla_ERa, cmpd/DMSO repeat 1
[2] = repeat 2, read-out: Renilla_ERa, cmpd/DMSO repeat 2
[3] = Table 14, read-out: Renilla F4, cmpd/DMSO (mean)
[4] = Table 14, 10 uM, read-out: Renilla F4, cmpd/DMSO (mean)
[5] = first set screening, 10 μM, repeat 1, read-out: Renilla, cmpd/DMSO repeat 1
[6] = first set screening, 10 μM, repeat 2, read-out: Renilla, cmpd/DMSO repeat 2
[7] = C11 analogs follow set (Tables 2-10)

| Firefly_ERa, cmpd/DMSO repeat 1 (ERα) | Firefly_ERa, cmpd/DMSO repeat 2 (ERα) | Firefly F4, cmpd/DMSO (mean) (NR2F6; 2 uM) | Firefly F4, cmpd/DMSO (mean) (NR2F6; 10 uM) | Firefly F4, cmpd/DMSO (mean) (NR2F6; 40 uM) | Firefly, cmpd/DMSO repeat 1 (NR2F6; first set screening, 10 μM) | Firefly, cmpd/DMSO repeat 2 (NR2F6; first set screening, 10 μM) | Compound | fold induction at 10 µM (Renilla_ERa; [1]) | fold induction at 10 µM (Renilla_ERa; [2]) | fold induction at 2 µM (HEK293 pGL4) | fold induction at 10 µM (HEK293 pGL4) | fold induction at 40 µM (HEK293 pGL4) | fold induction at 2 µM (Renilla; [3]) | fold induction at 10 µM (Renilla; [4]) | fold induction at 40 µM (Renilla; [3]) | fold induction at 10 µM (Renilla; [5]) | fold induction at 10 µM (Renilla; [6]) | other results |
| --- | --- | --- | --- | --- | --- | --- | --- | --- | --- | --- | --- | --- | --- | --- | --- | --- | --- | --- |
| 1.8 | 1.9 | 1.5 | 1.1 | 0.9 | 2.0 | 2.0 | Cc1ccc(-c2nc3ccccc3c(=O)[nH]2)cc1 [Compound C3] | 1.1 | 1.2 | 1.1 | 1.3 | 1 | 1 | 0.9 | 0.9 | 1.6 | 1.2 |  |
| 0.8 | 0.5 | 0.6 | 0.5 | 0.4 | 2.1 | 2.1 | CCc1cccc(Nc2cnn(-c3nc4ccccc4s3)c(=O)c2Cl)c1 [Compound C7] | 0.8 | 0.8 | 0.9 | 0.8 | 0.8 | 1 | 0.3 | 0.4 | 1.1 | 1.4 | activity (in words) (NR2F6): particularly good activity |
| 1.6 | 2.0 | 0.9 | 0.8 | 0.8 | 2.2 | 1.7 | O=C(Nc1cccc(O)c1)c1cc(-c2ccc(Cl)c(Cl)c2)on1 [Compound C5] | 1.2 | 1 | 1.3 | 1.2 | 1 | 0.7 | 0.5 | 1.1 | 1.3 | 1.4 |  |
| 2.2 | 1.4 | 1.4 | 0.6 | 0.4 | 2.6 | 1.9 | CCc1cc(C(=O)Nc2ccn(Cc3ccc(C)cc3)n2)no1 [Compound C6] | 1 | 1 | 1.3 | 1.3 | 1 | 0.7 | 0.6 | 0.5 | 1.2 | 0.9 |  |
| 1.2 | 1.2 |  |  |  | 2.1 | 2.8 | COCCNC(=O)c1ccc2c(c1)N=C(C)c1cc(C)ccc1S2 [Compound C8] | 1 | 1.1 |  |  |  |  |  |  | 3.4 | 3.1 |  |

Continued, molecule first:

| Compound | Firefly_ERa, cmpd/DMSO repeat 1 (ERα) | Firefly_ERa, cmpd/DMSO repeat 2 (ERα) | Firefly F4, cmpd/DMSO (mean) (NR2F6; 2 uM) | Firefly F4, cmpd/DMSO (mean) (NR2F6; 10 uM) | Firefly F4, cmpd/DMSO (mean) (NR2F6; 40 uM) | Firefly, cmpd/DMSO repeat 1 (NR2F6; first set screening, 10 μM) | Firefly, cmpd/DMSO repeat 2 (NR2F6; first set screening, 10 μM) | fold induction at 10 µM (Renilla_ERa; [1]) | fold induction at 10 µM (Renilla_ERa; [2]) | fold induction at 2 µM (HEK293 pGL4) | fold induction at 10 µM (HEK293 pGL4) | fold induction at 40 µM (HEK293 pGL4) | fold induction at 2 µM (Renilla; [3]) | fold induction at 10 µM (Renilla; [4]) | fold induction at 40 µM (Renilla; [3]) | fold induction at 10 µM (Renilla; [5]) | fold induction at 10 µM (Renilla; [6]) | other results |
| --- | --- | --- | --- | --- | --- | --- | --- | --- | --- | --- | --- | --- | --- | --- | --- | --- | --- | --- |
| O=C(COc1ccccc1C(=O)N1CCOCC1)NCCc1ccccc1 [Compound 22] | 1.5 | 2.2 | 1.3 | 1.4 | 0.6 | 2.1 | 2.9 | 0.8 | 1.1 | 1.6 | 1 | 1.5 | 0.8 | 1.1 | 1 | 1.1 | 1.3 |  |
| COC(=O)c1ccc2oc(=O)c(S(=O)(=O)c3ccccc3)cc2c1 [Compound C11] | 1.7 | 1.7 | 1.7 | 1.6 | 0.4 | 13.5 | 12.6 | 1.3 | 1.2 | 1.1 | 1.7 | 0.8 | 1.1 | 1.2 | 0.2 | 3.8 | 3.3 | Firefly, cmpd/DMSO repeat 1 (NR2F6; [7]): 24.6; Firefly, cmpd/DMSO repeat 2 (NR2F6; [7]): 21.3; Firefly/Renilla (NR2F6 stable, clone F4) (NR2F6; Table 12, ratio Firefly/Renilla, NR2F6 stable clone F4): 1.8; Firefly, NR2F6 stable (clone F4)/pGL4 (NR2F6; Table 12, ratio of Firefly in NR2F6 stable clone F4 to pGL4): 7.0; Firefly, cmpd/DMSO repeat 1 (NR2F6; Table 12): 24.6; Firefly, cmpd/DMSO repeat 2 (NR2F6; Table 12): 21.3; activity (in words) (NR2F6): particularly good activity; also recorded: particularly promising |
| COc1ccc(-c2cn3cccc(C)c3n2)cc1 [Compound 19] | 2.3 | 2.4 | 1.7 | 1.0 | 0.5 | 2.2 | 1.7 | 1.2 | 1 | 1.9 | 1.3 | 0.9 | 1.1 | 1 | 0.6 | 1.6 | 1.7 |  |
| Cc1cc(NC(=O)CCS(=O)(=O)c2nc(-c3ccc4c(c3)OCO4)cc(C(F)(F)F)n2)no1 [Compound C1] | 1.0 | 1.0 | 0.5 | 0.5 | 0.4 | 3.4 | 4.1 | 1.3 | 1.2 | 0.7 | 0.7 | 0.6 | 2.1 | 0.2 | 0.2 | 4.1 | 1.5 | activity (in words) (NR2F6): particularly good activity |
| COc1cc(Nc2c3c(nc4ccc(Cl)cc24)CCC3)cc(OC)c1OC [Compound C10] | 1.0 | 1.3 |  |  |  | 2.1 | 2.6 | 0.7 | 0.8 |  |  |  |  |  |  | 3.1 | 1.6 |  |
| O=c1[nH]c(CS(=O)(=O)c2ccccc2)nc2sc3c(c12)CCCC3 [Compound 25] | 1.3 | 0.7 |  |  |  | 2.4 | 1.9 |  |  |  |  |  |  |  |  |  |  | Renilla_ERa, cmpd/DMSO repeat 1 (Renilla_ERa; repeat 1): 0.9; Renilla_ERa, cmpd/DMSO repeat 2 (Renilla_ERa; repeat 2): 1.0; Renilla, cmpd/DMSO repeat 1 (Renilla; first set screening, 10 μM, repeat 1): 3.1; Renilla, cmpd/DMSO repeat 2 (Renilla; first set screening, 10 μM, repeat 2): 2.1 |

— patent US11377442B2, “Small molecule agonists and antagonists of NR2F6 activity” (ZANDER THERAPEUTICS, INC., priority 2016, dated 2022)
